This note sets out measurements from patent US9745284B2, “2-pyridyloxy-4-ether orexin receptor antagonists” (MERCK SHARP & DOHME CORP., priority 2013, dated 2017).

One assay addresses hOX1R (Homo sapiens, UniProt O43613). The assay is described as follows: FLIPR Ca2+ flux assay, orexin-1 receptor. Conditions: CHO cells expressing orexin-1 receptor; agonist 70 pM Ala-6,12 orexin-A. The assay is classed as cell-based.
The target of another assay is human orexin-2 receptor (Homo sapiens (Human), UniProt O43614). The assay is described as follows: FLIPR Ca2+ flux assay, orexin-2 receptor. The format is cell-based. The settings on record: CHO cells expressing human orexin-2 receptor; agonist 70 pM Ala-6,12 orexin-A; read-out: hOX2R FLIPR IC50. The method, then:
The utility of the compounds in accordance with the present invention as orexin receptor OX1R and/or OX2R antagonists may be readily determined without undue experimentation by methodology well known in the art, including the “FLIPR Ca^2+ Flux Assay” (Okumura et al., Biochem. Biophys. Res. Comm. 280:976-981, 2001). In a typical experiment the OX1 and OX2 receptor antagonistic activity of the compounds of the present invention was determined in accordance with the following experimental method. For intracellular calcium measurements, Chinese hamster ovary (CHO) cells expressing the rat orexin-1 receptor or the human orexin-2 receptor, are grown in Iscove's modified DMEM containing 2 mM L-glutamine, […], 1% hypoxanthine-thymidine supplement, 100 U/ml penicillin, 100 μg/ml streptomycin and 10% heat-inactivated fetal calf serum (FCS). The cells are seeded at 20,000 cells/well into Becton-Dickinson black 384-well clear bottom sterile plates coated with poly-D-lysine. All reagents were from GIBCO-Invitrogen Corp. The seeded plates are incubated overnight at 37° C. and 5% CO2. Ala-6,12 human orexin-A as the agonist is prepared as a 1 mM stock solution in 1% bovine serum albumin (BSA) and diluted in assay buffer (HBSS containing 20 mM HEPES, 0.1% BSA and 2.5 mM probenecid, pH7.4) for use in the assay at a final concentration of 70 pM. Test compounds are prepared as 10 mM stock solution in DMSO, then diluted in 384-well plates, first in DMSO, then assay buffer. On the day of the assay, cells are washed 3 times with 100 μl assay buffer and then incubated for 60 min (37° C., 5% CO2) in 60 μl assay buffer containing 1 μM Fluo-4AM ester, 0.02% pluronic acid, and 1% BSA. The dye loading solution is then aspirated and cells are washed 3 times with 100 μl assay buffer. 30 μl of that same buffer is left in each well. Within the Fluorescent Imaging Plate Reader (FLIPR, Molecular Devices), test compounds are added to the plate in a volume of 25 μl, incubated for 5 min and finally 25 μl of agonist is added. Fluorescence is measured for each well at 1 second intervals for 5 minutes and the height of each fluorescence peak is compared to the height of the fluorescence peak induced by 70 pM Ala-6,12 orexin-A with buffer in place of antagonist. For each antagonist, IC50 value (the concentration of compound needed to inhibit 50% of the agonist response) is determined. Alternatively, compound potency can be assessed by a radioligand binding assay (described in Bergman et. al. Bioorg. Med. Chem. Lett. 2008, 18, 1425-1430) in which the inhibition constant (Ki) is determined in membranes prepared from CHO cells expressing either the OX1 or OX2 receptor. The intrinsic orexin receptor antagonist activity of a compound which may be used in the present invention may be determined by these assays.
Background: Calcium flux is commonly read through the fluorescence of an indicator in the cells.

human orexin-2 receptor, sequence (O43614 whole entry): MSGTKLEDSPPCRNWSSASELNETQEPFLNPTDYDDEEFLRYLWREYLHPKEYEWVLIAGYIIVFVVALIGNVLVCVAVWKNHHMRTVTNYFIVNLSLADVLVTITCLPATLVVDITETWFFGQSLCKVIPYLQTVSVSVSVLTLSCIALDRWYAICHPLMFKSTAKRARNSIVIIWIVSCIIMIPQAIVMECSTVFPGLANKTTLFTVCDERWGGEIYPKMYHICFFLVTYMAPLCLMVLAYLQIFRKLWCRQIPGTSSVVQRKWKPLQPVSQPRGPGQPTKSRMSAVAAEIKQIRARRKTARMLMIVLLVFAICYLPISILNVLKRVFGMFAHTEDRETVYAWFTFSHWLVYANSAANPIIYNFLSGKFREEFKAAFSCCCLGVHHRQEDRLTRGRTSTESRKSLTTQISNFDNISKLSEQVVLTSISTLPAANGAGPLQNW

As to `COc1ccnc(O[C@@H]2CC[C@@H](C)N(C(=O)c3ccc(F)cc3-n3nccn3)C2)c1` [Example 19, 2-{[(3R,6R)-1-{[4-fluoro-2-(2H-1,2,3-triazol-2-yl)phenyl]carbonyl}-6-methylpiperidin-3-yl]oxy}-4-methoxypyridine], the IC50 (commonly the concentration that gives 50% inhibition) at hOX1R turned out to be 1800 nM; at human orexin-2 receptor, 22.1 nM.

In the case of `C[C@@H]1CC[C@@H](Oc2cc(OCF)ccn2)CN1C(=O)c1ccccc1-n1nccn1` [Example 53, (2-(2H-1,2,3-Triazol-2-yl)phenyl)((2R,5R)-5-((4-(fluoromethoxy)pyridin-2-yl)oxy)-2-methylpiperidin-1-yl)methanone], the IC50 on hOX1R turned out to be 490 nM; on human orexin-2 receptor, 8 nM.

In the case of `Cc1nc(-c2ccccc2C(=O)N2C[C@H](Oc3cc(OCC(F)F)ccn3)CC[C@H]2C)no1` [Example 38, 4-(2,2-difluoroethoxy)-2-{[(3R,6R)-6-methyl-1-{[2-(5-methyl-1,2,4-oxadiazol-3-yl)phenyl]carbonyl}piperidin-3-yl]oxy}pyridine], the 50% inhibitory concentration (IC50) at hOX1R worked out at 2500 nM; on human orexin-2 receptor, 56 nM.

As to `COc1ccnc(O[C@@H]2CC[C@@H](C)N(C(=O)c3ccccc3C3CC3)C2)c1` [Example 12, 2-({(3R,6R)-1-[(2-cyclopropylphenyl)carbonyl]-6-methylpiperidin-3-yl}oxy)-4-methoxypyridine], the IC50 on hOX1R stood at 938 nM; on human orexin-2 receptor, 11 nM.

As for `C[C@@H]1CC[C@@H](Oc2cc(OC(F)F)ccn2)CN1C(=O)c1ccccc1-n1ncnn1` [Example 57, 4-(difluoromethoxy)-2-{[(3R,6R)-6-methyl-1-{[2-(2H-tetrazol-2-yl)phenyl]carbonyl}piperidin-3-yl]oxy}pyridine], the results for the IC50 at hOX1R and at human orexin-2 receptor were 1690 nM and 11 nM, respectively.

In the case of `COc1ccnc(O[C@@H]2CC[C@@H](C)N(C(=O)c3ccc(OC)nc3-c3ccccc3)C2)c1` [Example 15, 6-methoxy-3-({(2R,5R)-5-[(4-methoxypyridin-2-yl)oxy]-2-methylpiperidin-1-yl}carbonyl)-2-phenylpyridine], the IC50 on hOX1R was 746 nM; at human orexin-2 receptor it was 24.5 nM.

On to `COc1ccnc(O[C@@H]2CC[C@@H](C)N(C(=O)c3ccccc3-n3nccn3)C2)c1Br` [Example 3, 3-bromo-4-methoxy-2-{[(3R,6R)-6-methyl-1-{[2-(2H-1,2,3-triazol-2-yl)phenyl]carbonyl}piperidin-3-yl]oxy}pyridine], for which the IC50 at hOX1R came out at 843 nM; at human orexin-2 receptor, 14.7 nM.

For the compound `COc1ccc(C(=O)N2C[C@H](Oc3cc(OC(C)C)ccn3)CC[C@H]2C)c(-n2nccn2)n1` [Example 25, 6-methoxy-3-{[(2R,5R)-2-methyl-5-{[4-(1-methylethoxy)pyridin-2-yl]oxy}piperidin-1-yl]carbonyl}-2-(2H-1,2,3-triazol-2-yl)pyridine], the IC50 on hOX1R was found to be 10000 nM; on human orexin-2 receptor, 110 nM.

Consider `C[C@@H]1CC[C@@H](Oc2cc(OCC(F)F)ccn2)CN1C(=O)c1ccsc1-n1nccn1` [Example 60, (2-(2H-1,2,3-Triazol-2-yl)thiophen-3-yl)((2R,5R)-5-((4-(2,2-difluoroethoxy)pyridin-2-yl)oxy)-2-methylpiperidin-1-yl)methanone], for which the IC50 on hOX1R stood at 2020 nM; on human orexin-2 receptor, 22 nM.

Consider `C[C@@H]1CC[C@@H](Oc2cc(OCC(F)F)ccn2)CN1C(=O)c1ccccc1-n1nccn1` [Example 27, (2-(2H-1,2,3-triazol-2-yl)phenyl)((2R,5R)-5-((4-(2,2-difluoroethoxy)pyridin-2-yl)oxy)-2-methylpiperidin-1-yl)methanone], for which the values for the IC50 at hOX1R and at human orexin-2 receptor were 1420 nM and 12 nM, respectively.

Regarding `COc1ccnc(O[C@@H]2CC[C@@H](C)N(C(=O)c3ccccc3-n3nccn3)C2)c1C` [Example 48, 4-Methoxy-3-methyl-2-{[(3R,6R)-6-methyl-1-{[2-(2H-1,2,3-triazol-2-yl)phenyl]carbonyl}piperidin-3-yl]oxy}pyridine], the IC50 was determined as 568 nM at hOX1R and 9.7 nM on human orexin-2 receptor.

Regarding `C[C@@H]1CC[C@@H](Oc2cc(OCC(F)(F)F)ccn2)CN1C(=O)c1ccsc1-c1ncccn1` [Example 66, 2-(3-{[(2R,5R)-2-methyl-5-{[4-(2,2,2-trifluoroethoxy)pyridin-2-yl]oxy}piperidin-1-yl]carbonyl}thiophen 2-yl)pyrimidine], the IC50 stood at 2080 nM on hOX1R and 26 nM on human orexin-2 receptor.

`C[C@@H]1CC[C@@H](Oc2cc(OC3CC3)ccn2)CN1C(=O)c1ccccc1-n1nccn1` [Example 40, 4-(Cyclopropyloxy)-2-{[(3R,6R)-6-methyl-1-{[2-(2H-1,2,3-triazol-2-yl)phenyl]carbonyl}-piperidin-3-yl]oxy}pyridine]: the IC50 at hOX1R is 581 nM; on human orexin-2 receptor, 15.2 nM.

In the case of `C[C@@H]1CC[C@@H](Oc2cc(OCC(F)(F)F)ccn2)CN1C(=O)c1ccsc1-n1nccn1` [Example 63, 2-{[(3R,6R)-6-methyl-1-{[2-(2H-1,2,3-triazol-2-yl)thiophen-3-yl]carbonyl}piperidin-3-yl]oxy}-4-(2,2,2-trifluoroethoxy) pyridine], the IC50 worked out at 8380 nM on hOX1R and 55 nM on human orexin-2 receptor.

As to `COc1ccnc(O[C@@H]2CC[C@@H](C)N(C(=O)c3ccsc3-c3ncccn3)C2)c1` [Example 58, ((2R,5R)-5-((4-Methoxypyridin-2-yl)oxy)-2-methylpiperidin-1-yl)(2-(pyrimidin-2-yl)thiophen-3-yl)methanone], the IC50 at hOX1R turned out to be 1110 nM; at human orexin-2 receptor, 21 nM.
